According to the supplement of paper PMC11424490:

Experiments:
NCI-H358 [1] = test: relative IC50 of cell viability (CellTiter-Glo); higher = less potent
In short: (§1)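 The NCI-H2122, SW837 and NCI-H358 cell lines were plated in 384-well format at 800, 500 and 500 cells/well respectively, in 60 µl. After a 24 h wait, single compounds were applied in dose series by acoustic dispensing, and plates were incubated 72 h, or 144 h in the case of SW837. Readout was CellTiter-Glo luminescence on an EnVision reader following 15 min shaking, normalised to DMSO controls. Both the relative IC50 (a mean over replicates) and the lower plateau derive from a four-parameter nonlinear fit.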

NCI-H2122 [2] = test: as above
In short: as §1

SW837 [3] = test: as above
In short: as §1

NCI-H358 [4] = test: fitted bottom plateau of viability curve, % of DMSO control; higher = less maximal inhibition; extreme values may be limits of the assay
In short: as §1

NCI-H2122 [5] = test: as above
In short: as §1

SW837 [6] = test: as above
In short: as §1

NCI-H358 [7] = test: combination cScore with adagrasib (Bliss gap around IC50) (%PoC); higher = stronger additive effect
In short: (§2)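 The score averages the gap between expected and measured viability under Bliss independence, taken over a field around the IC50 of each single agent or, where an IC50 was not reached, at the highest concentrations. Viability came from CellTiter-Glo luminescence, normalised to vehicle wells as percent of control and fitted with four-parameter curves. NCI-H2122, NCI-H358 and SW837 cells were dosed in concentration matrices 24 h after seeding and grown for 72 h, or 144 h for SW837.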

NCI-H2122 [8] = test: as above
In short: as §2

SW837 [9] = test: as above
In short: as §2

SMILES | relative IC50 of cell viability (NCI-H358 [1]) [nM] | relative IC50 of cell viability (NCI-H2122 [2]) [nM] | relative IC50 of cell viability (SW837 [3]) [nM] | fitted bottom plateau of viability curve (NCI-H358 [4]) [%] | fitted bottom plateau of viability curve (NCI-H2122 [5]) [%] | fitted bottom plateau of viability curve (SW837 [6]) [%] | combination cScore with adagrasib (NCI-H358 [7]) | combination cScore with adagrasib (NCI-H2122 [8]) | combination cScore with adagrasib (SW837 [9])
Cc1nc(Nc2n[nH]c3c2CN(C(=O)N[C@H](CN(C)C)c2ccccc2)C3(C)C)c2sccc2n1 (top concentration tested 9999.9 nM) | 18.1 | 11.9 | 907 | 5.57 | 11.9 | 0 |  |  | 
Cc1c(-c2c(-c3ccc(F)o3)sc3ncnc(O[C@H](Cc4ccccc4OCc4ccnn4CC(F)(F)F)C(=O)O)c23)ccc(OCCN2CCN(C)CC2)c1Cl (top concentration tested 10000 nM) | 3590 | 3790 |  | 0 | 34.5 | 101 |  |  | 
CC1(C)CCC(c2ccc(Cl)cc2)=C(CN2CCN(c3ccc(C(=O)NS(=O)(=O)c4ccc(N[C@H](CCN5CCOCC5)CSc5ccccc5)c(S(=O)(=O)C(F)(F)F)c4)cc3)CC2)C1 [ABT-263] (top concentration tested 10000 nM) | 6290 | 6240 |  | 0 | 50 | 46 |  |  | 
COc1cc(CCc2cc(NC(=O)c3ccc(N4CC(C)NC(C)C4)cc3)n[nH]2)cc(OC)c1 (stereo unspecified) [AZD4547] (top concentration tested 10000 nM) | 5730 | 4100 |  | 0 | 68 | 86.8 |  |  | 
CCN(CCCOc1ccc2c(Nc3cc(CC(=O)Nc4cccc(F)c4)[nH]n3)ncnc2c1)CCOP(=O)(O)O [AZD-1152] (top concentration tested 1000.1 nM) | 28 |  |  | 60.1 | 57.4 | 62 |  |  | 
Cc1nc(NC(=O)N2CCC[C@H]2C(N)=O)sc1-c1ccnc(C(C)(C)C(F)(F)F)c1 [BYL-719] (top concentration tested 10000 nM) | 2610 | 2530 |  | 10.9 | 17.8 | 77.5 |  |  | 
Cc1nc(Nc2ncc(C(=O)Nc3c(C)cccc3Cl)s2)cc(N2CCN(CCO)CC2)n1 [Dasatinib] (top concentration tested 10000 nM) | 1360 |  | 7040 | 0 | 78.1 | 0 |  |  | 
C#Cc1cccc(Nc2ncnc3cc(OCCOC)c(OCCOC)cc23)c1 [Erlotinib] (top concentration tested 10000 nM) | 1300 | 4260 |  | 12.3 | 29.5 | 82.2 |  |  | 
C[C@H](Nc1ccc2c(c1)OCCn1cc(N3C(=O)OC[C@H]3C(F)F)nc1-2)C(N)=O [GDC-0077] (top concentration tested 10000 nM) | 712 | 867 |  | 23.1 | 48.4 | 68.7 |  |  | 
COc1cc2ncnc(Nc3ccc(F)c(Cl)c3)c2cc1OCCCN1CCOCC1 [Gefitinib] (top concentration tested 9999.9 nM) | 883 | 3100 |  | 19.7 | 37.8 | 77.7 |  |  | 
O=C(O)CNC(=O)c1c(O)c2ccccc2n(Cc2ccccc2)c1=O [IOX2] (top concentration tested 50000 nM) | 10800 | 51400 |  | 2.49 | 52.8 | 52.6 |  |  | 
C=CC(=O)N1CCC[C@@H](n2nc(-c3ccc(Oc4ccccc4)cc3)c3c(N)ncnc32)C1 [Ibrutinib] (top concentration tested 10000 nM) | 262 |  |  | 12.4 | 76.7 | 76.6 |  |  | 
Cc1c(CN2CCC(Nc3ncnc4sc(CC(F)(F)F)cc34)CC2)ccc2[nH]c(C#N)cc12 [MI-463] (top concentration tested 5000 nM) | 3910 |  |  | 0 | 79.5 | 86.6 |  |  | 
NC1(c2ccc(-c3nc4ccn5c(=O)[nH]nc5c4cc3-c3ccccc3)cc2)CCC1 [MK-2206] (top concentration tested 10000 nM) | 1990 | 2160 |  | 33.4 | 31.8 | 79.9 |  |  | 
CC(C)n1nc(-c2ccc3oc(N)nc3c2)c2c(N)ncnc21 [MLN-0128] (top concentration tested 99.893 nM) | 27.2 | 25.9 |  | 17.7 | 22.6 | 85.3 |  |  | 
COc1cc(N2CCC(N3CCN(C)CC3)CC2)ccc1Nc1ncc(Cl)c(Nc2ccccc2S(=O)(=O)C(C)C)n1 [NVP-TAE684] (top concentration tested 10000 nM) | 922 | 384 |  | 3.01 | 0.655 | 56.5 |  |  | 

SMILES | relative IC50 of cell viability (NCI-H358 [1]) [nM] | relative IC50 of cell viability (NCI-H2122 [2]) [nM] | relative IC50 of cell viability (SW837 [3]) [nM] | fitted bottom plateau of viability curve (NCI-H358 [4]) [%] | fitted bottom plateau of viability curve (NCI-H2122 [5]) [%] | fitted bottom plateau of viability curve (SW837 [6]) [%] | combination cScore with adagrasib (NCI-H358 [7]) | combination cScore with adagrasib (NCI-H2122 [8]) | combination cScore with adagrasib (SW837 [9])
CC(=O)c1c(C)c2cnc(Nc3ccc(N4CCNCC4)cn3)nc2n(C2CCCC2)c1=O [Palbociclib] (top concentration tested 5000 nM) | 859 |  |  | 34.2 | 59.8 | 93.5 |  |  | 
Cc1ccc(C(=O)Nc2ccc(CN3CCN(C)CC3)c(C(F)(F)F)c2)cc1C#Cc1cnc2cccnn12 [Ponatinib] + C=C(F)C(=O)N1CCN(c2nc(OC[C@@H]3CCCN3C)nc3c2CCN(c2cccc4cccc(Cl)c24)C3)C[C@@H]1CC#N [adagrasib] |  |  |  |  |  |  | 3.62 | 14.4 | -0.53
CCc1nc(N)nc(N)c1-c1ccc(Cl)cc1 [Pyrimethamine] + C=C(F)C(=O)N1CCN(c2nc(OC[C@@H]3CCCN3C)nc3c2CCN(c2cccc4cccc(Cl)c24)C3)C[C@@H]1CC#N [adagrasib] |  |  |  |  |  |  | -2.05 | 15.2 | -3.37
CC1(N)CCN(c2cnc(-c3cccc(Cl)c3Cl)c(N)n2)CC1 [SHP099] + C=C(F)C(=O)N1CCN(c2nc(OC[C@@H]3CCCN3C)nc3c2CCN(c2cccc4cccc(Cl)c24)C3)C[C@@H]1CC#N [adagrasib] |  |  |  |  |  |  | 1.39 | 19.4 | 14.3
CCc1c2c(nc3ccc(O)cc13)-c1cc3c(c(=O)n1C2)COC(=O)[C@]3(O)CC [SN-38] + C=C(F)C(=O)N1CCN(c2nc(OC[C@@H]3CCCN3C)nc3c2CCN(c2cccc4cccc(Cl)c24)C3)C[C@@H]1CC#N [adagrasib] |  |  |  |  |  |  | -1.51 | 6.93 | -1.14
C[C@@H]1OCC2(CCN(c3cnc(Sc4ccnc(N)c4Cl)c(N)n3)CC2)[C@@H]1N [TNO155] (top concentration tested 10000 nM) | 499 |  |  | 29.4 | 69.5 | 94.5 |  |  | 
C[C@@H]1OCC2(CCN(c3cnc(Sc4ccnc(N)c4Cl)c(N)n3)CC2)[C@@H]1N [TNO155] + C=C(F)C(=O)N1CCN(c2nc(OC[C@@H]3CCCN3C)nc3c2CCN(c2cccc4cccc(Cl)c24)C3)C[C@@H]1CC#N [adagrasib] |  |  |  |  |  |  | 9.32 | 49 | 31
CC/C(=C(\c1ccccc1)c1ccc(OCCN(C)C)cc1)c1ccccc1 [Tamoxifen] + C=C(F)C(=O)N1CCN(c2nc(OC[C@@H]3CCCN3C)nc3c2CCN(c2cccc4cccc(Cl)c24)C3)C[C@@H]1CC#N [adagrasib] |  |  |  |  |  |  | 6.27 | 10.3 | 5.45
Cc1nc(-c2cn3c(n2)-c2ccc(-c4cnn(C(C)(C)C(N)=O)c4)cc2OCC3)n(C(C)C)n1 [Taselisib] (top concentration tested 10000 nM) | 470 | 290 |  | 1.64 | 16.9 | 86 |  |  | 
Cc1nc(-c2cn3c(n2)-c2ccc(-c4cnn(C(C)(C)C(N)=O)c4)cc2OCC3)n(C(C)C)n1 [Taselisib] + C=C(F)C(=O)N1CCN(c2nc(OC[C@@H]3CCCN3C)nc3c2CCN(c2cccc4cccc(Cl)c24)C3)C[C@@H]1CC#N [adagrasib] |  |  |  |  |  |  | 7.08 | 18.1 | 26.6
COc1cc2/c(=N/c3ccc(Br)cc3F)nc[nH]c2cc1OCC1CCN(C)CC1 [Vandetanib] (top concentration tested 10000 nM) | 1340 | 2070 |  | 3.22 | 49.8 | 82.1 |  |  | 
COc1cc2/c(=N/c3ccc(Br)cc3F)nc[nH]c2cc1OCC1CCN(C)CC1 [Vandetanib] + C=C(F)C(=O)N1CCN(c2nc(OC[C@@H]3CCCN3C)nc3c2CCN(c2cccc4cccc(Cl)c24)C3)C[C@@H]1CC#N [adagrasib] |  |  |  |  |  |  | 7.95 | 21.3 | 27.6
Oc1nc(-c2ccc(C(F)(F)F)cc2)nc2c1CSCC2 [XAV939] + C=C(F)C(=O)N1CCN(c2nc(OC[C@@H]3CCCN3C)nc3c2CCN(c2cccc4cccc(Cl)c24)C3)C[C@@H]1CC#N [adagrasib] |  |  |  |  |  |  | 4.11 | 23.8 | 5.74
CCNC(=O)C[C@@H]1N=C(c2ccc(Cl)cc2)c2cc(OC)ccc2-n2c(C)nnc21 [iBET-762] (top concentration tested 10000 nM) | 1430 |  | 839 | 53 | 59.6 | 37.6 |  |  | 
CCNC(=O)C[C@@H]1N=C(c2ccc(Cl)cc2)c2cc(OC)ccc2-n2c(C)nnc21 [iBET-762] + C=C(F)C(=O)N1CCN(c2nc(OC[C@@H]3CCCN3C)nc3c2CCN(c2cccc4cccc(Cl)c24)C3)C[C@@H]1CC#N [adagrasib] |  |  |  |  |  |  | 5.14 | 22.7 | 0.28
